Where no end group is shown, it is not given here.
How the values were obtained:
PC12 neuronal cells [1] = experiment: PC12 mitochondrial metabolism (MTT reduction) / neuroprotection against H2O2-induced oxidative stress; type: cell-based; conditions: H2O2 0.5 mmol·L^−1, 20 h, percent compared to control group, oxidative stress model
Description: PC12 cells were pre-treated with γ-, δ- or ε-scoliidines for 4 h and then exposed to γ-, δ- or ε-scoliidines containing H2O2 for an additional 20 h, providing a protective model (Figure 3A). Cells subjected to a 20-h exposure to H2O2 represent an oxidative stress model.
Figure 3 Neuroprotective property of γ-, δ- and ε-scoliidines on mitochondrial metabolism of the PC12 cell line against H2O2-induced oxidative stress. (A) The experiment involved treating cells (5 × 10^3 cells per well in a 96-well plate) with γ, δ, and ε scoliidines (1 μmol·L^−1) for 4 h at 37 °C. After that, the medium was changed with a solution containing peptide (1 μmol·L^−1) and H2O2 (0.5 mmol·L^−1), and the cells were incubated for an additional 20 h. (B) Protective effects of peptides against neurotoxicity caused by oxidative stress. […]
PC12 cells (5 × 10^3 cells per well) seeded in a 96-well plate (Nest Biotechnology, Rahway, NJ, USA) were used to study the neuroprotective effects of peptides against H2O2-induced oxidative stress, according to a previous study. […] The mitochondrial metabolism was analyzed by 3-(4,5-dimethylthiazol-2-yl)-2,5-diphenyltetrazolium bromide (MTT; 0.5 mg·mL^−1 for 3 h of incubation at 37 °C) reduction assay. The absorbance of the MTT formazan dissolved in 100% DMSO was measured at a wavelength of 540 nm using a spectrophotometer (BioTek Instruments, Inc., Winooski, VT, USA). […]

[2] = system: angiotensin-converting enzyme (ACE); experiment: Peptide stability / cleavage by angiotensin-converting enzyme; type: in vitro ADME, rabbit; conditions: relative hydrolysis ratio; peptide 30 µmol·L^−1, ACE 7.5 ng, 37 °C, 4 h
Excerpt: (§1) All chemicals used here were analytical reagent grade (purity higher than 95%) purchased from different brands. The AChE enzyme was derived from Electrophorus electricus Type VI-S, and the ACE I enzyme was derived from rabbit lung and was acquired from Sigma-Aldrich Corporation (St. Louis, MO, USA). Neprilysin and the substrates [Abz-FRK (Dnp) P-OH and Abz-RGFK (Dnp)-OH] were supplied by Prof. Adriana Carmona from the Department of Biophysics at Federal University of São Paulo (SP, Brazil). PC12 cell (American Type Culture Collection ® CRL-1721™; Manassas, VA, USA) was used in the present study. Cells were routinely cultured in DMEM medium (Sigma-Aldrich Corporation; St. Louis, MO, USA), according to a previous study.
(§2) The stability tests of peptides (30 µmol·L^−^1) were tested after incubation separately with ACE and NEP (7.5 ng) at 37 °C for 4 h, according to previous reports.

human neprilysin (NEP) = experiment: Peptide stability / cleavage by neprilysin; type: in vitro ADME; conditions: relative hydrolysis ratio; peptide 30 µmol·L^−1, NEP 7.5 ng, 37 °C, 4 h
Excerpt: as §1, §2

PC12 cells = experiment: PC12 cytotoxicity (crystal violet cell viability); type: cell-based; conditions: result in words
Description: Figure 2 Cytotoxic effects of γ-, δ- and ε-scoliidines on PC12 viability. The cells were exposed to peptides at different concentrations and times. The control and DMSO groups correspond to cells that have not been treated and cells that have been treated with a 5% concentration of DMSO, respectively. […] Statistical analysis was conducted using a one-way analysis of variance (ANOVA), followed by Dunnett’s post-test. The statistical difference when compared to the control group (p < 0.05) was indicated by asterisks.
as §1
The cytotoxicity assay was performed using the staining of attached cells with crystal violet dye, according to the literature. Briefly, PC12 cells (5 × 10^3 cells per well; 96-well plates) were treated with different concentrations and times. Untreated cells or treated with DMSO (5%; v·v^−1) were included as controls. We measured the absorbance of dye solubilized in methanol at 570 nm using a microplate reader (BioTek Instruments, Inc., Winooski, VT, USA). We collected data from three distinct examinations, each performed three times, showing the percentage of cell viability relative to the control.
All results are shown as mean ± SD from three separate experiments (n = 3) in triplicate. One-way analysis of variance (ANOVA) was used for between-group comparisons, and Dunnett’s post-hoc test was used for multiple comparisons. Statistical significance was defined as p < 0.05. The analyses were done using GraphPad Prism 6.0 (GraphPad Software, Inc., La Jolla, CA, USA).

neuronal PC12 cells = conditions: result in words, ref [26]; cited from earlier work
Excerpt: (§3) In recent years, our investigation has focused on scoliid wasp venoms. Scoliid wasps hunt and sting beetle larvae under the ground. Comprehensive LC-MS and MS/MS analysis of the venom extract from Scolia decorata ventralis identified two major peptide components named α- and β-scoliidine. […] This is the first case of solitary wasp venom peptides showing neuroprotective activity. Similarly, venom components of Campsomeriella annulata annulata were in ...

[3] = system: acetylcholine (ACh) receptors of insect central nervous system; conditions: result in words; insects' central nervous system; ref [18],[19],[20]; cited from earlier work
Excerpt: Scoliid wasp venoms were the first solitary wasp venoms to be studied between the years 1987 and 1990, and the presence of bradykinin-related peptides was reported. […] Since the f ...

[4] = system: acetylcholinesterase (AChE); experiment: Acetylcholinesterase (AChE) activity, Ellman's method; type: biochemical, Electrophorus electricus; conditions: compared to control (100 ± 1.6%), mean ± SD
Excerpt: Figure 4 Effects of γ-, δ- and ε-scoliidines on the function of acetylcholinesterase (AChE). The AChE activity was quantified as a percentage of hydrolyzed acetylthiocholine iodine substrate compared to the control (C; blank box). The data obtained from three separate experiments, each performed three times, is presented as mean ± SD.
as §1
The inhibition of AChE activity was determined spectrophotometrically based on Ellman’s method, as previously reported. We calculated AChE activity as the hydrolyzed acetylthiocholine iodide substrate concentration as a percentage of control.
All results are shown as mean ± SD from three separate experiments (n = 3) in triplicate. […]

PC12 neuronal cells [5] = conditions: result in words, ref [25]; cited from earlier work
Excerpt: as §3

[6] = all concentrations and times assessed, 570 nm

Which “mitochondrial metabolism of PC12 cells treated only with H2O2” value (PC12 neuronal cells [1]) does the source give for OO [H2O2] here?
Its value is 75.8 ± 2.4%.

Which results are given for “RPPGFSPFR [bradykinin, reference compound]”?
Cleavage (%) ACE [2]: 100%; Cleavage (%) NEP (human neprilysin (NEP)): 100%

What does the source list for YVTVKGFSPLREP [δ-scoliidine]?
cell viability (PC12 cells; [6]): cell viability remained unchanged; Cleavage (%) ACE [2]: <0.01%; Cleavage (%) NEP (human neprilysin (NEP)): <0.01%

Which “cell growth potentiating effect” value (neuronal PC12 cells) does the source give for PRLRRLTGLSPLRAP [β-campsomerin] here?
The value was “had no effect”.

For RPPGFTPFRKA [Megascoliakinin], which “blocking action on ACh receptors” value [3] is on record?
The value was “showing a blocking action on ACh receptors”.

For DYVTVKGFSPLRKA [β-scoliidine], which “Cleavage (%) ACE” value [2] is on record?
The value was under 0.01%.

What about the “Cleavage (%) NEP” value (human neprilysin (NEP)) of the same compound?
The value was under 0.01%.

What does the source list for DYVTVKGFSPLREP [ε-scoliidine]?
cell viability (PC12 cells; 0.01 μmoL·L^−1, up to 6 h of treatment, 570 nm, three experiments in triplicate): enhanced cell viability; cell viability (PC12 cells; 10 μmoL·L^−1, 24 h, 570 nm, three experiments in triplicate): cell viability decreased; concentration dependence of decrease in cell viability (PC12 cells; 570 nm): decrease in cell viability was dependent on the concentration; Cleavage (%) ACE [2]: <0.01%; Cleavage (%) NEP (human neprilysin (NEP)): <0.01%

Which “blocking action on ACh receptors” value [3] does the source give for RPPGFTPFR [Thr^6-bradykinin] here?
Its value is “showing a blocking action on ACh receptors”.

With C[S+](C)[O-] [DMSO, reference compound] as the compound, how does the “cell viability with DMSO” value (PC12 cells; DMSO 5% (v·v^−1)) read?
Its value is “decrease in cell viability”.

For CCOP(=O)(OCC)OP(=O)(OCC)OCC [TEPP, tetraethyl pyrophosphate], which “AChE activity with positive control” value [4] is on record?
Its value is 27.8 ± 6.5%.

With PRLRRLTGLSPLR [α-campsomerin] as the compound, how does the “cell growth potentiating effect” value (neuronal PC12 cells) read?
The value was “showed a cell growth potentiating effect”.

For DYVTVKGFSPLR [α-scoliidine], which “neuroprotective effect against oxidative stress-induced neurotoxicity” value (PC12 neuronal cells [5]) is on record?
Its value is “only β-scoliidine showed a neuroprotective effect”.

Which cell viability (PC12 cells; [6]) does the source give for YVTVKGFSPLR [γ-scoliidine] here?
The cell viability was “cell viability remained unchanged”.

What about the “Cleavage (%) ACE” value [2] of the same compound?
The value was under 0.01%.

What about the “Cleavage (%) NEP” value (human neprilysin (NEP)) of the same compound?
The value was under 0.01%.

Reference: article PMC11511111, “Scoliidines: Neuroprotective Peptides in Solitary Scoliid Wasp Venoms” (Toxins, 2024)
